# Tested on: Phytophthora infestans
# Test: microbe, parasite or virus in culture
# Assay type: cell-based
# Details: in Secale cereale, 168 h, read-out: control compared to the untreated check
row,Structure (SMILES),inhibition of growth at 30 ppm [%]
1,"N#Cc1nccc(OCC(=O)N2CCC(c3nc(C4=NOC(c5c(O)cccc5Cl)C4)cs3)CC2)n1 (stereo not shown) [Compound 95, 4-(2-(4-(4-(5-(2-chloro-6-hydroxyphenyl)-4,5-dihydroisoxazol-3-yl)thiazol-2-yl)piperidin-1-yl)-2-oxoethoxy)pyrimidine-2-carbonitrile]",≥ 70
2,"COc1nccnc1OCC(=O)N1CCC(c2csc(C3=NOC(c4c(F)cccc4Cl)C3)n2)CC1 (stereo not shown) [Compound 97, 1-(4-(2-(5-(2-chloro-6-fluorophenyl)-4,5-dihydroisoxazol-3-yl)thiazol-4-yl)piperidin-1-yl)-2-((3-methoxypyrazin-2-yl)oxy)ethan-1-one]",≥ 70
3,"COc1nc(OC)nc(OCC(=O)N2CCC(c3nc(C4=NOC(c5c(F)cccc5Cl)C4)cs3)CC2)n1 (stereo not shown) [Compound 98, 1-(4-(4-(5-(2-chloro-6-fluorophenyl)-4,5-dihydroisoxazol-3-yl)thiazol-2-yl)piperidin-1-yl)-2-((4,6-dimethoxy-1,3,5-triazin-2-yl)oxy)ethan-1-one]",≥ 70
4,"COc1cncc(OCC(=O)N2CCC(c3nc(C4=NOC(c5c(Cl)cccc5Cl)C4)cs3)CC2)n1 (stereo not shown) [Compound 99, 1-(4-(4-(5-(2,6-dichlorophenyl)-4,5-dihydroisoxazol-3-yl)thiazol-2-yl)piperidin-1-yl)-2-((6-methoxypyrazin-2-yl)oxy)ethan-1-one]",≥ 70
5,"COc1cncc(OCC(=O)N2CCC(c3nc(C4=NOC(c5c(Cl)cccc5C#N)C4)cs3)CC2)n1 (stereo not shown) [Compound 100, 3-chloro-2-(3-(2-(1-(2-((6-methoxypyrazin-2-yl)oxy)acetyl)piperidin-4-yl)thiazol-4-yl)-4,5-dihydroisoxazol-5-yl)benzonitrile]",≥ 70
6,"COc1cncc(OCC(=O)N2CCC(c3nc(C4=NOC(c5c(F)cccc5Cl)C4)cs3)CC2)n1 (stereo not shown) [Compound 101, 1-(4-(4-(5-(2-chloro-6-fluorophenyl)-4,5-dihydroisoxazol-3-yl)thiazol-2-yl)piperidin-1-yl)-2-((6-methoxypyrazin-2-yl)oxy)ethan-1-one]",≥ 70
7,"COc1cncc(OCC(=O)N2CCC(c3nc(C4=NOC(c5c(Cl)cccc5C(F)(F)F)C4)cs3)CC2)n1 (stereo not shown) [Compound 102, 1-(4-(4-(5-(2-chloro-6-(trifluoromethyl)phenyl)-4,5-dihydroisoxazol-3-yl)thiazol-2-yl)piperidin-1-yl)-2-((6-methoxypyrazin-2-yl)oxy)ethan-1-one]",≥ 70
8,"COc1cncc(OCC(=O)N2CCC(c3nc(C4=NOC(c5c(Cl)cccc5OS(C)(=O)=O)C4)cs3)CC2)n1 (stereo not shown) [Compound 103, 3-chloro-2-(3-(2-(1-(2-((6-methoxypyrazin-2-yl)oxy)acetyl)piperidin-4-yl)thiazol-4-yl)-4,5-dihydroisoxazol-5-yl)phenyl methanesulfonate]",≥ 70
9,"COc1cncc(OCC(=O)N2CCC(c3nc(C4=NOC(c5c(Cl)ccc(F)c5F)C4)cs3)CC2)n1 (stereo not shown) [Compound 104, 1-(4-(4-(5-(6-chloro-2,3-difluorophenyl)-4,5-dihydroisoxazol-3-yl)thiazol-2-yl)piperidin-1-yl)-2-((6-methoxypyrazin-2-yl)oxy)ethan-1-one]",≥ 70
10,"COc1nc(OC)nc(OCC(=O)N2CCC(c3nc(C4=NOC(c5c(Cl)cccc5C(F)(F)F)C4)cs3)CC2)n1 (stereo not shown) [Compound 105, 1-(4-(4-(5-(2-chloro-6-(trifluoromethyl)phenyl)-4,5-dihydroisoxazol-3-yl)thiazol-2-yl)piperidin-1-yl)-2-((4,6-dimethoxy-1,3,5-triazin-2-yl)oxy)ethan-1-one]",≥ 70
11,"COc1nc(OC)nc(OCC(=O)N2CCC(c3nc(C4=NOC(c5c(Cl)cccc5Cl)C4)cs3)CC2)n1 (stereo not shown) [Compound 106, 1-(4-(4-(5-(2,6-dichlorophenyl)-4,5-dihydroisoxazol-3-yl)thiazol-2-yl)piperidin-1-yl)-2-((4,6-dimethoxy-1,3,5-triazin-2-yl)oxy)ethan-1-one]",≥ 70
12,"COc1nc(OC)nc(OCC(=O)N2CCC(c3nc(C4=NOC(c5c(Cl)cccc5OS(C)(=O)=O)C4)cs3)CC2)n1 (stereo not shown) [Compound 107, 3-chloro-2-(3-(2-(1-(2-((4,6-dimethoxy-1,3,5-triazin-2-yl)oxy)acetyl)piperidin-4-yl)thiazol-4-yl)-4,5-dihydroisoxazol-5-yl)phenyl methanesulfonate]",≥ 70
13,"COc1nc(OC)nc(OCC(=O)N2CCC(c3nc(C4=NOC(c5c(F)cccc5F)C4)cs3)CC2)n1 (stereo not shown) [Compound 109, 1-(4-(4-(5-(2,6-difluorophenyl)-4,5-dihydroisoxazol-3-yl)thiazol-2-yl)piperidin-1-yl)-2-((4,6-dimethoxy-1,3,5-triazin-2-yl)oxy)ethan-1-one]",≥ 70
14,"O=C(COc1nccnc1Cl)N1CCC(c2nc(C3=NOC(c4c(Cl)ccc(F)c4F)C3)cs2)CC1 (stereo not shown) [Compound 111, 1-(4-(4-(5-(6-chloro-2,3-difluorophenyl)-4,5-dihydroisoxazol-3-yl)thiazol-2-yl)piperidin-1-yl)-2-((3-chloropyrazin-2-yl)oxy)ethan-1-one]",≥ 70
15,"N#Cc1ccnc(OCC(=O)N2CCC(c3nc(C4=NOC(c5c(F)cccc5Br)C4)cs3)CC2)n1 (stereo not shown) [Compound 117, 2-(2-(4-(4-(5-(2-bromo-6-fluorophenyl)-4,5-dihydroisoxazol-3-yl)thiazol-2-yl)piperidin-1-yl)-2-oxoethoxy)pyrimidine-4-carbonitrile]",≥ 70
16,"COc1cncc(OCC(=O)N2CCC(c3nc(C4=NOC(c5c(F)cccc5F)C4)cs3)CC2)n1 (stereo not shown) [Compound 119, 1-(4-(4-(5-(2,6-difluorophenyl)-4,5-dihydroisoxazol-3-yl)thiazol-2-yl)piperidin-1-yl)-2-((6-methoxypyrazin-2-yl)oxy)ethan-1-one]",≥ 70
17,"COc1ncc(OCC(=O)N2CCC(c3nc(C4=NOC(c5c(Cl)cccc5OS(C)(=O)=O)C4)cs3)CC2)cn1 (stereo not shown) [Compound 130, 3-chloro-2-(3-(2-(1-(2-((2-methoxypyrimidin-5-yl)oxy)acetyl)piperidin-4-yl)thiazol-4-yl)-4,5-dihydroisoxazol-5-yl)phenyl methanesulfonate]",≥ 70
18,"COc1ncc(OCC(=O)N2CCC(c3nc(C4=NOC(c5c(F)cccc5Cl)C4)cs3)CC2)cn1 (stereo not shown) [Compound 132, 1-(4-(4-(5-(2-chloro-6-fluorophenyl)-4,5-dihydroisoxazol-3-yl)thiazol-2-yl)piperidin-1-yl)-2-((2-methoxypyrimidin-5-yl)oxy)ethan-1-one]",≥ 70
19,"COc1ncc(OCC(=O)N2CCC(c3nc(C4=NOC(c5c(Cl)cc(Cl)cc5Cl)C4)cs3)CC2)cn1 (stereo not shown) [Compound 133, 2-((2-methoxypyrimidin-5-yl)oxy)-1-(4-(4-(5-(2,4,6-trichlorophenyl)-4,5-dihydroisoxazol-3-yl)thiazol-2-yl)piperidin-1-yl)ethan-1-one]",≥ 70
20,"COc1ncc(OCC(=O)N2CCC(c3nc(C4=NOC(c5c(F)cccc5Br)C4)cs3)CC2)cn1 (stereo not shown) [Compound 134, 1-(4-(4-(5-(2-bromo-6-fluorophenyl)-4,5-dihydroisoxazol-3-yl)thiazol-2-yl)piperidin-1-yl)-2-((2-methoxypyrimidin-5-yl)oxy)ethan-1-one]",≥ 70
21,"COc1ncc(OCC(=O)N2CCC(c3nc(C4=NOC(c5cc(Cl)ccc5Cl)C4)cs3)CC2)cn1 (stereo not shown) [Compound 135, 1-(4-(4-(5-(2,5-dichlorophenyl)-4,5-dihydroisoxazol-3-yl)thiazol-2-yl)piperidin-1-yl)-2-((2-methoxypyrimidin-5-yl)oxy)ethan-1-one]",≥ 70
22,"COc1ncc(OCC(=O)N2CCC(c3nc(C4=NOC(c5c(Cl)cccc5C(F)(F)F)C4)cs3)CC2)cn1 (stereo not shown) [Compound 137, 1-(4-(4-(5-(2-chloro-6-(trifluoromethyl)phenyl)-4,5-dihydroisoxazol-3-yl)thiazol-2-yl)piperidin-1-yl)-2-((2-methoxypyrimidin-5-yl)oxy)ethan-1-one]",≥ 70
23,"COc1ncc(OCC(=O)N2CCC(c3nc(C4=NOC(c5c(O)cccc5Cl)C4)cs3)CC2)cn1 (stereo not shown) [Compound 138, 1-(4-(4-(5-(2-chloro-6-hydroxyphenyl)-4,5-dihydroisoxazol-3-yl)thiazol-2-yl)piperidin-1-yl)-2-((2-methoxypyrimidin-5-yl)oxy)ethan-1-one]",≥ 70
24,"COc1ncc(OCC(=O)N2CCC(c3nc(C4=NOC(c5c(F)cccc5F)C4)cs3)CC2)cn1 (stereo not shown) [Compound 139, 1-(4-(4-(5-(2,6-difluorophenyl)-4,5-dihydroisoxazol-3-yl)thiazol-2-yl)piperidin-1-yl)-2-((2-methoxypyrimidin-5-yl)oxy)ethan-1-one]",≥ 70
25,"CSc1nccnc1OCC(=O)N1CCC(c2nc(C3=NOC(c4c(F)cccc4F)C3)cs2)CC1 (stereo not shown) [Compound 140, 1-(4-(4-(5-(2,6-difluorophenyl)-4,5-dihydroisoxazol-3-yl)thiazol-2-yl)piperidin-1-yl)-2-((3-(methylthio)pyrazin-2-yl)oxy)ethan-1-one]",≥ 70
26,"CSc1nccnc1OCC(=O)N1CCC(c2nc(C3=NOC(c4c(F)cccc4Br)C3)cs2)CC1 (stereo not shown) [Compound 141, 1-(4-(4-(5-(2-bromo-6-fluorophenyl)-4,5-dihydroisoxazol-3-yl)thiazol-2-yl)piperidin-1-yl)-2-((3-(methylthio)pyrazin-2-yl)oxy)ethan-1-one]",≥ 70
27,"CSc1nccnc1OCC(=O)N1CCC(c2nc(C3=NOC(c4c(F)cccc4Cl)C3)cs2)CC1 (stereo not shown) [Compound 142, 1-(4-(4-(5-(2-chloro-6-fluorophenyl)-4,5-dihydroisoxazol-3-yl)thiazol-2-yl)piperidin-1-yl)-2-((3-(methylthio)pyrazin-2-yl)oxy)ethan-1-one]",≥ 70
28,"CSc1nccnc1OCC(=O)N1CCC(c2nc(C3=NOC(c4c(Cl)cccc4C(F)(F)F)C3)cs2)CC1 (stereo not shown) [Compound 143, 1-(4-(4-(5-(2-chloro-6-(trifluoromethyl)phenyl)-4,5-dihydroisoxazol-3-yl)thiazol-2-yl)piperidin-1-yl)-2-((3-(methylthio)pyrazin-2-yl)oxy)ethan-1-one]",≥ 70

# Reference: patent publication US12471596B2 (priority 2019, dated 2025)
